From US8163779B2, “Glucokinase activators” (Takeda San Diego, Inc., priority 2006, dated 2012)

Each molecule was assayed against T1, glucokinase (GK) (Homo sapiens, UniProt P35557) (assay: enzymatic glucokinase activity assay (ATP consumption, KinaseGlo luminescence)). Details: recombinant GK residues 12-465; 5 μM ATP, 5 mM Glucose; Kact = concentration that displays 50% of the maximal increase in GK activity; read-out: pKact.
T1 construct: I.D. No. 1 corresponds to residues 12-465 of glucokinase; made in house; host or cells: E. coli DH10b-T1r
T1 sequence (P35557 with tags, fused parts or gaps isoform P35557-2): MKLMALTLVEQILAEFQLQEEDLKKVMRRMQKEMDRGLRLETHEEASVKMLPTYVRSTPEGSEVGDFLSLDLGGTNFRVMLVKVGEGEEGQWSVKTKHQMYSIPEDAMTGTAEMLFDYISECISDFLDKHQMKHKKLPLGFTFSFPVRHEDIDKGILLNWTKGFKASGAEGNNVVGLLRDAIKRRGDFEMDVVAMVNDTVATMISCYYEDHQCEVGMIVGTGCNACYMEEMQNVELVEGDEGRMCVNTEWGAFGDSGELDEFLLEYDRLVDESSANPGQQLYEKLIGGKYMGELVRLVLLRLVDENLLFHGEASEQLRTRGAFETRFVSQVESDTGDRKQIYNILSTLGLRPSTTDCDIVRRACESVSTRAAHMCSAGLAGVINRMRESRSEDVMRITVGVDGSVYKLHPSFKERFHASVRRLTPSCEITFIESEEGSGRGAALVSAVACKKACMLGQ
Assay type: biochemical
Procedure, shortened: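 Recombinant human glucokinase expressed in E. coli was run in 25 mM Hepes pH 7.2 with 10 mM MgCl2, 1 mM DTT, 5 μM ATP, 5 mM glucose and 2% DMSO for 60 min at room temperature. Remaining ATP was read by KinaseGlo luminescence; pKact came from non-linear curve fits.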

Structure (SMILES) | EC50 [nM]
Cc1cnc(NC(=O)C(CC2CCOCC2)n2ccc(OCc3ccccc3)cc2=O)s1 (stereo not shown) [Example 55, 2-(4-(benzyloxy)-2-oxopyridin-1(2H)-yl)-N-(5-methylthiazol-2-yl)-3-(tetrahydro-2H-pyran-4-yl)propanamide] | 1580 to 15800
O=C(Nc1ncc(F)s1)[C@H](CC1CCOCC1)n1ccc(S(=O)(=O)C2CCCC2)cc1=O [Example 34, (S)-2-(4-(cyclopentylsulfonyl)-2-oxopyridin-1(2H)-yl)-N-(5-fluorothiazol-2-yl)-3-(tetrahydro-2H-pyran-4-yl)propanamide] | < 1580
O=C(Nc1ncc(Cl)s1)[C@H](CC1CCOCC1)n1cc(Cl)c(S(=O)(=O)C2CC2)cc1=O [Example 196, (S)-2-(5-chloro-4-(cyclopropylsulfonyl)-2-oxopyridin-1(2H)-yl)-N-(5-chlorothiazol-2-yl)-3-(tetrahydro-2H-pyran-4-yl)propanamide] | 1580 to 15800
CS(=O)(=O)c1ccn(C(Cc2cc(F)ccc2Cl)C(=O)Nc2ncc(Cl)s2)c(=O)c1 (stereo not shown) [Example 9, 3-(2-chloro-5-fluorophenyl)-N-(5-chlorothiazol-2-yl)-2-(4-(methylsulfonyl)-2-oxopyridin-1(2H)-yl)propanamide] | > 15800
O=C(Nc1ncc(F)s1)[C@@H](CC1CCOCC1)n1ccc(S(=O)(=O)C2CCCC2)cc1=O [Example 33, (R)-2-(4-(cyclopentylsulfonyl)-2-oxopyridin-1(2H)-yl)-N-(5-fluorothiazol-2-yl)-3-(tetrahydro-2H-pyran-4-yl)propanamide] | 1580 to 15800
Cc1c(S(=O)(=O)C2CCCC2)c(C)c(=O)n([C@@H](CC2CCOCC2)C(=O)Nc2ncc(Cl)s2)c1C [Example 135, (S)-N-(5-chlorothiazol-2-yl)-2-(4-(cyclopentylsulfonyl)-3,5,6-trimethyl-2-oxopyridin-1(2H)-yl)-3-(tetrahydro-2H-pyran-4-yl)propanamide] | < 1580
Cn1ccc(NC(=O)C(CC2CCOCC2)n2ccc(S(=O)(=O)C3CC3)cc2=O)n1 (stereo not shown) [Example 66, 2-(4-(cyclopropylsulfonyl)-2-oxopyridin-1(2H)-yl)-N-(1-methyl-1H-pyrazol-3-yl)-3-(tetrahydro-2H-pyran-4-yl)propanamide] | > 15800
Cc1c(S(=O)(=O)C2CCCC2)cc(=O)n([C@H](CC2CCOCC2)C(=O)Nc2ncc(F)s2)c1C [Example 153, (R)-2-(4-(cyclopentylsulfonyl)-5,6-dimethyl-2-oxopyridin-1(2H)-yl)-N-(5-fluorothiazol-2-yl)-3-(tetrahydro-2H-pyran-4-yl)propanamide] | < 1580
O=C(Nc1ncc(Cl)s1)C(CC1CCCCC1)n1ccc(C(=O)N2CCCC2)cc1=O (stereo not shown) [Example 129, N-(5-chlorothiazol-2-yl)-3-cyclohexyl-2-(2-oxo-4-(pyrrolidine-1-carbonyl)pyridin-1(2H)-yl)propanamide] | 1580 to 15800

Results, then the molecule that gave them:

EC50 [nM] | Structure (SMILES)
1580 to 15800 | Cc1cc(S(=O)(=O)c2cccc(F)c2)cc(=O)n1[C@@H](CC1CCOCC1)C(=O)Nc1ncc(F)s1 [Example 189, (S)-2-(4-(3-fluorophenylsulfonyl)-6-methyl-2-oxopyridin-1(2H)-yl)-N-(5-fluorothiazol-2-yl)-3-(tetrahydro-2H-pyran-4-yl)propanamide]
> 15800 | Cc1csc(-c2cc(C)n([C@@H](CC3CCCCC3)C(=O)Nc3nccs3)c(=O)c2)c1 [Example 111, (S)-3-cyclohexyl-2-(6-methyl-4-(4-methylthiophen-2-yl)-2-oxopyridin-1(2H)-yl)-N-(thiazol-2-yl)propanamide]
< 1580 | Cc1cc(S(=O)(=O)C2CCCC2)cc(=O)n1C(CC1CCCCC1)C(=O)Nc1ncc(CN2CCOCC2)s1 (stereo not shown) [Example 89, 3-cyclohexyl-2-(4-(cyclopentylsulfonyl)-6-methyl-2-oxopyridin-1(2H)-yl)-N-(5-(morpholinomethyl)thiazol-2-yl)propanamide]
< 1580 | Cc1cc(S(=O)(=O)Cc2cccs2)cc(=O)n1[C@@H](CC1CCCCC1)C(=O)Nc1ncc(Cl)s1 [Example 85, (S)-N-(5-chlorothiazol-2-yl)-3-cyclohexyl-2-(6-methyl-2-oxo-4-(thiophen-2-ylmethylsulfonyl)pyridin-1(2H)-yl)propanamide]
